Legend:
barnyardgrass = test: Test A pre-/postemergence herbicide test; assay type: in vivo, Echinochloa crus-galli
Method in brief: (§1)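 Plants are held in greenhouse about ten days after treatment, then compared with untreated controls and scored 0 (no effect) to 100 (complete control). Preemergence dosing is a directed soil spray on sown sandy loam; postemergence dosing is spray to runoff at 2–10 cm height.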

morningglory = test: Test A pre-/postemergence herbicide test; assay type: in vivo, Ipomoea spp.
Method in brief: as §1

Surinam grass = test: Test C pre-/postemergence herbicide test; assay type: in vivo, Urochloa decumbens; details: for Surinam Grass plant response rating: 500 g ai/ha
Method in brief: (§2)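 Greenhouse-grown plants were evaluated visually 12 to 14 days after treatment, with 100 meaning complete control and 0 no effect. Application was preemergence, or postemergence at 2 to 18 cm.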

corn = test: Test C pre-/postemergence herbicide test; assay type: in vivo, Zea mays; details: for Corn plant response rating: 500 g ai/ha
Method in brief: as §2

woolly cupgrass = test: Test C pre-/postemergence herbicide test; assay type: in vivo, Eriochloa villosa; details: for Cupgrass, Woolly plant response rating: 500 g ai/ha
Method in brief: as §2

johnsongrass = test: Test C pre-/postemergence herbicide test; assay type: in vivo, Sorghum halepense; details: for Johnsongrass plant response rating: 500 g ai/ha
Method in brief: as §2

eastern black nightshade = test: Test C pre-/postemergence herbicide test; assay type: in vivo, Solanum ptycanthum; details: for Nightshade plant response rating: Preemergence, 500 g ai/ha, scale 0 to 100, 0 no effect, 100 complete control
Method in brief: as §2

[1] = tested on: common (oilseed) sunflower; test: Test C pre-/postemergence herbicide test; assay type: in vivo, Helianthus annuus; details: for Sunflower plant response rating: Preemergence, 500 g ai/ha, scale 0 to 100, 0 no effect, 100 complete control
Method in brief: as §2

velvetleaf = test: Test C pre-/postemergence herbicide test; assay type: in vivo, Abutilon theophrasti; details: for Velvetleaf plant response rating: 500 g ai/ha
Method in brief: as §2

[2] = Postemergence, 500 g ai/ha, 0 to 100 scale, 0 no effect, 100 complete control
[3] = Postemergence, 2000 g ai/ha, 0 to 100 scale, 0 no effect, 100 complete control
[4] = Preemergence, 500 g ai/ha, visual rating, 0 to 100 scale (0 no effect, 100 complete control)
[5] = Preemergence, 2000 g ai/ha, visual rating, 0 to 100 scale (0 no effect, 100 complete control)
[6] = 125 g ai/ha, scale 0 (no effect) to 100 (complete control), visual, 12 to 14 days, preemergence
[7] = Postemergence, 250 g ai/ha, scale 0 to 100, 0 no effect, 100 complete control
[8] = Preemergence, scale 0 to 100, 0 no effect, 100 complete control
[9] = postemergence, 125 g ai/ha, scale 0 to 100
[10] = 250 g ai/ha, scale 0 to 100 (0 no effect, 100 complete control), visual, 12 to 14 days, preemergence
[11] = preemergence, 500 g ai/ha, visual injury, 0 to 100 scale (0 no effect, 100 complete control)
[12] = 62 g ai/ha, preemergence, scale 0 to 100
[13] = 250 g ai/ha, scale 0-100, preemergence

Which results are given for CCn1nc(C(C)(C)C)cc1C(=O)Nc1cccc(SC(F)(F)F)c1 [Compound 130]?
Barnyardgrass plant response rating (barnyardgrass; [2]): 20; Plant response rating, Barnyardgrass (barnyardgrass; [3]): 20; Barnyardgrass plant response rating (barnyardgrass; [4]): 40; Barnyardgrass plant response rating (barnyardgrass; [5]): 30; Morningglory plant response rating (morningglory; [2]): 20; Plant response rating, Morningglory (morningglory; [3]): 25; Morningglory plant response rating (morningglory; [4]): 10; Morningglory plant response rating (morningglory; [5]): 15; Plant response rating (0 = no effect, 100 = complete control), Surinam Grass (Surinam grass; 62 g ai/ha, preemergence): 5; Plant response rating, Surinam Grass (Surinam grass; [6]): 5; Surinam Grass plant response rating (Surinam grass; Postemergence, scale 0 to 100): 60; Plant response rating, Surinam Grass (Surinam grass; [7]): 30; Surinam Grass plant response rating (Surinam grass; [8]): 60; Plant response rating, Surinam Grass (Surinam grass; [9]): 10; Plant response rating (0 = no effect, 100 = complete control), Corn (corn; 62 g ai/ha, preemergence): 0; Plant response rating, Corn (corn; [6]): 5; Plant response rating, Corn (corn; [10]): 5; Corn plant response rating (corn; Postemergence, scale 0 to 100): 50; Plant response rating, Corn (corn; [7]): 45; Corn plant response rating (corn; [8]): 10; Plant response rating, Corn (corn; [9]): 45; Plant response rating (0 = no effect, 100 = complete control), Cupgrass, Woolly (woolly cupgrass; 62 g ai/ha, preemergence): 5; Plant response rating, Cupgrass, Woolly (woolly cupgrass; [6]): 10; Plant response rating, Cupgrass, Woolly (woolly cupgrass; [10]): 40; Cupgrass, Woolly plant response rating (woolly cupgrass; Postemergence, scale 0 to 100): 80; Plant response rating, Cupgrass, Woolly (woolly cupgrass; [7]): 60; Cupgrass, Woolly plant response rating (woolly cupgrass; [8]): 70; Plant response rating, Cupgrass, Woolly (woolly cupgrass; [9]): 50; Johnsongrass plant response rating (johnsongrass; Postemergence, scale 0 to 100): 40; Plant response rating, Johnsongrass (johnsongrass; [7]): 30; Johnsongrass plant response rating (johnsongrass; [8]): 80; Plant response rating, Johnsongrass (johnsongrass; [9]): 10; Plant response rating (0 = no effect, 100 = complete control), Nightshade (eastern black nightshade; 62 g ai/ha, preemergence): 30; Nightshade plant response rating (eastern black nightshade): 60; Plant response rating (0 = no effect, 100 = complete control), Sunflower ([1]; 62 g ai/ha, preemergence): 0; Plant response rating, Sunflower [1, 6]: 0; Sunflower plant response rating [1]: 0; Plant response rating, Velvetleaf (velvetleaf; [6]): 10; Velvetleaf plant response rating (velvetleaf; Postemergence, scale 0 to 100): 85; Plant response rating, Velvetleaf (velvetleaf; [7]): 40; Velvetleaf plant response rating (velvetleaf; [8]): 100; Plant response rating, Velvetleaf (velvetleaf; [9]): 30

With CC(=NO)c1cccc(NC(=O)c2sc(C(C)(C)C)nc2C)c1 [Compound 195] as the compound, how does the “Barnyardgrass plant response rating” value (barnyardgrass; [2]) read?
Its value is 15.

What about the “Plant response rating, Barnyardgrass” value (barnyardgrass; [3]) of the same compound?
The value was 50.

And the “Barnyardgrass plant response rating” value (barnyardgrass; [5])?
Its value is 45.

What about the “Barnyardgrass plant response rating” value (barnyardgrass; [11]) of the same compound?
Its value is 20.

What about the “Morningglory plant response rating” value (morningglory; [2]) of the same compound?
Its value is 10.

And the “Plant response rating, Morningglory” value (morningglory; [3])?
The value was 10.

And the “Morningglory plant response rating” value (morningglory; [5])?
Its value is 10.

And the “Morningglory plant response rating” value (morningglory; [11])?
The value was 5.

And the “Plant response rating, Surinam Grass” value (Surinam grass; [12])?
Its value is 0.

And the “Plant response rating, Surinam Grass” value (Surinam grass; [6])?
Its value is 0.

And the “Plant response rating, Surinam Grass” value (Surinam grass; [13])?
The value was 85.

And the “Surinam Grass plant response rating” value (Surinam grass; [8])?
The value was 85.

What about the “Plant response rating, Corn” value (corn; [12]) of the same compound?
Its value is 0.

What about the “Plant response rating, Corn” value (corn; [6]) of the same compound?
Its value is 0.

And the “Plant response rating, Corn” value (corn; [13])?
Its value is 0.

And the “Corn plant response rating” value (corn; [8])?
The value was 0.

What about the “Plant response rating, Cupgrass, Woolly” value (woolly cupgrass; [12]) of the same compound?
Its value is 0.

What about the “Plant response rating, Cupgrass, Woolly” value (woolly cupgrass; [6]) of the same compound?
The value was 0.

What about the “Plant response rating, Cupgrass, Woolly” value (woolly cupgrass; [13]) of the same compound?
The value was 10.

What about the “Cupgrass, Woolly plant response rating” value (woolly cupgrass; [8]) of the same compound?
Its value is 10.

What about the “Plant response rating, Johnsongrass” value (johnsongrass; [12]) of the same compound?
The value was 0.

What about the “Plant response rating, Johnsongrass” value (johnsongrass; [6]) of the same compound?
The value was 0.

What about the “Plant response rating, Johnsongrass” value (johnsongrass; [13]) of the same compound?
The value was 0.

What about the “Johnsongrass plant response rating” value (johnsongrass; [8]) of the same compound?
Its value is 0.

And the “Plant response rating, Nightshade” value (eastern black nightshade; [12])?
Its value is 0.

What about the “Plant response rating, Nightshade” value (eastern black nightshade; [6]) of the same compound?
The value was 0.

And the “Plant response rating, Nightshade” value (eastern black nightshade; [13])?
Its value is 0.

And the “Nightshade plant response rating” value (eastern black nightshade)?
The value was 0.

And the “Plant response rating, Sunflower” value [1, 12]?
The value was 0.

And the “Plant response rating, Sunflower” value [1, 6]?
The value was 0.

And the “Plant response rating, Sunflower” value [1, 13]?
The value was 0.

And the “Sunflower plant response rating” value [1]?
The value was 10.

What about the “Plant response rating, Velvetleaf” value (velvetleaf; [12]) of the same compound?
The value was 0.

And the “Plant response rating, Velvetleaf” value (velvetleaf; [6])?
Its value is 50.

And the “Plant response rating, Velvetleaf” value (velvetleaf; [13])?
The value was 55.

What about the “Velvetleaf plant response rating” value (velvetleaf; [8]) of the same compound?
The value was 100.

From patent US20060069132A1, “Azolecarboxamide herbicides” (priority 2004, published 2006)
